Data published in PubChem BioAssay AID1845212 (Molecular Pharmacology Branch, DTP, NCI, 2023).
The source made the active and inactive calls. Rule for the calls: active = viability on the fitted dose curve at most 10% of control; inactive = the rest.

System: NCI-H719 tumor spheroids, viability
Assay: Anticancer human tumor NCI-H719 cell line growth inhibition;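 for IC50: spheroids exposed to compounds for seven days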;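 for viability, T/C: spheroids exposed to compounds for seven days; percent viability relative to DMSO vehicle control as 100%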
Settings: spheroids with HUVEC and MSC; for IC50: curve of first compound; for viability, T/C: stronger effect = lower value
Procedure, shortened: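 Complex spheroids of malignant cells with endothelial cells and mesenchymal stem cells; agents alone or combined, from near clinical Cmax (or 10 microM if unknown) down in half-log steps, 0.25% DMSO final.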

[1] = second compound 1 µM, first compound 0.0316 µM
[2] = second compound 1 µM, first compound 0.1 µM
[3] = second compound 1 µM, first compound 0.316 µM
[4] = second compound 1 µM, first compound 1 µM
[5] = second compound 1 µM, first compound 3.16 µM
[6] = second compound 1 µM, first compound 10 µM
[7] = second compound 3.16 µM, first compound 0.0316 µM
[8] = second compound 3.16 µM, first compound 0.1 µM
[9] = second compound 3.16 µM, first compound 0.316 µM
[10] = second compound 3.16 µM, first compound 1 µM
[11] = second compound 3.16 µM, first compound 3.16 µM
[12] = second compound 3.16 µM, first compound 10 µM
[13] = second compound 10 µM, first compound 0.0316 µM
[14] = second compound 10 µM, first compound 0.1 µM
[15] = second compound 10 µM, first compound 0.316 µM
[16] = second compound 10 µM, first compound 1 µM
[17] = second compound 10 µM, first compound 3.16 µM
[18] = second compound 10 µM, first compound 10 µM
[19] = second compound 31.6 µM, first compound 0.0316 µM
[20] = second compound 31.6 µM, first compound 0.1 µM
[21] = second compound 31.6 µM, first compound 0.316 µM
[22] = second compound 31.6 µM, first compound 1 µM
[23] = second compound 31.6 µM, first compound 3.16 µM
[24] = second compound 31.6 µM, first compound 10 µM
[25] = second compound 100 µM, first compound 0.0316 µM
[26] = second compound 100 µM, first compound 0.1 µM
[27] = second compound 100 µM, first compound 0.316 µM
[28] = second compound 100 µM, first compound 1 µM
[29] = second compound 100 µM, first compound 3.16 µM
[30] = second compound 100 µM, first compound 10 µM

Row | SMILES | IC50 (second compound 1 µM) | IC50 (second compound 3.16 µM) | IC50 (second compound 10 µM) | IC50 (second compound 31.6 µM) | IC50 (second compound 100 µM) | viability, T/C [1] | viability, T/C [2] | viability, T/C [4] | viability, T/C [5] | viability, T/C [6] | viability, T/C [7] | viability, T/C [8] | viability, T/C [9] | viability, T/C [10] | viability, T/C [11] | viability, T/C [12] | viability, T/C [13] | viability, T/C [14] | viability, T/C [15] | viability, T/C [16] | further results
1 | CC(C)n1c(=O)n(C)c2cnc3cc(F)c(-c4ccc(OCCCN5CCCCC5)nc4)cc3c21 + Cn1nnc2c(C(N)=O)ncn2c1=O | > 10000 nM | > 10000 nM | > 10000 nM | > 10000 nM | > 10000 nM | 94.3% | 107% | 79.8% | 139% | 95.2% | 89.4% | 109% | 111% | 87.8% | 148% | 116% | 109% | 104% | 103% | 89.2% | outcome [3]: inactive; viability, T/C [17]: 141%; viability, T/C [18]: 112%; viability, T/C [19]: 119%; viability, T/C [20]: 118%; viability, T/C [21]: 114%; viability, T/C [22]: 97.2%; viability, T/C [23]: 110%; viability, T/C [24]: 94.4%; viability, T/C [25]: 104%; viability, T/C [26]: 86.8%; viability, T/C [27]: 83.7%; viability, T/C [28]: 74.6%; viability, T/C [29]: 82.5%; viability, T/C [30]: 68.5%
2 | COc1ccc([C@@H](O)c2cc(-c3ncnc4cc(N5CCOCC5)ccc34)c(F)cc2Cl)nn1 + Cn1nnc2c(C(N)=O)ncn2c1=O | 797 nM | 873 nM | 1100 nM | 810 nM | 506 nM | 80.1% | 78.5% | 34.6% | 46.3% | 49.5% | 102% | 83.7% | 77.8% | 40.8% | 45.6% | 52.4% | 99.2% | 94.1% | 65.6% | 50.8% | viability, T/C [3]: 76.6%; viability, T/C [17]: 48.9%; viability, T/C [18]: 33.8%; viability, T/C [19]: 99.3%; viability, T/C [20]: 101%; viability, T/C [21]: 68.1%; viability, T/C [22]: 46.7%; viability, T/C [23]: 30.4%; viability, T/C [24]: 20.8%; viability, T/C [25]: 89.9%; viability, T/C [26]: 81%; viability, T/C [27]: 55%; viability, T/C [28]: 36.5%; viability, T/C [29]: 34%; viability, T/C [30]: 17.3%
